Experimental findings from US20260151398A1, “COMPOUNDS FOR REDUCING CHOLESTEROL AND TREATING LIVER AND KIDNEY DISEASE” (McMaster University, priority 2021, published 2026) are described below.

In data set [1] the test system is AMPK. As to the kind of experiment: AMPK phosphorylation in livers of CF-treated mice. Format: in vivo, mouse. The following applies: C57BL/6J mice, CF 100 mg/kg, 8 hours. The method, then: All animal studies were carried out in 8 h-fasted male wild-type, Pcsk9^−/− or Ampkβ1^−/− mice on the C57BL/6J background. CF (25-100 mg/kg-8 h) and CDN (50 mg/kg) treatments were administered via intraperitoneal injection unless specified otherwise. Primary mouse hepatocytes were isolated using a two-step process with EGTA ([…] in HEPES buffer, Sigma Aldrich) and collagenase (0.05% in HEPES buffer, Sigma Aldrich) in 12-week-old male mice on the C57BL/6J background. Cells were then washed, centrifuged, and plated following isolation in cell strainers. Hepatosure® 100-donor pooled primary human hepatocytes were purchased from Xenotech. Primary hepatocytes were regularly grown in William's E medium (Gibco, Thermo Fisher Scientific) containing 10% fetal bovine serum, 100 IU/ml penicillin, and 100 µg/ml streptomycin.
Previous studies have also shown that CF can promote the phosphorylation and activation of AMPK (Quan, H. Y., et al., 2013; Tsuda, S., et al., 2015), a liver-expressed kinase known to induce the inhibitory phosphorylation of SREBP1c (Li, Y., et al., 2011). […] Primary mouse hepatocytes were then isolated from wildtype (WT) and Ampkβ1−/− mice (Dzamko, N., et al., 2010).

Data set [2] relates to total secreted protein. Nature of the data set: Coomassie stain of medium for total secreted protein. The data set is classed as cell-based. As to conditions: Coomassie stain of medium of CF-treated cells. The protocol: Cultured immortalized hepatocytes known to express and secrete PCSK9 (Lebeau, P., et al., 2017), including HuH7 and HepG2 cells, as well as primary mouse- and human-hepatocytes (PMH and PHH, respectively), were treated with CF for 24 h and assessed for PCSK9 expression via immunoblots and real-time PCR (FIG. 1 A to D). […] Given that sterol deprivation represents another well-established promoter of SREBP2 activation (Lebeau, P., et al., 2017), cells were also treated with CF in the presence and absence of U18666A (U18) that depletes intracellular sterols. […] Next, HepG2 cells were treated with an increasing dose of CF.

In data set [3] the test system is PCSK9. As to the kind of experiment: Plasma PCSK9 in healthy human subjects after oral CF. Format: in vivo. As to conditions: fasted healthy subjects, 400 mg orally (~5 mg/kg). The method, then:
(§1) Secreted PCSK9 levels were assessed directly in cell culture medium of cells grown in FBS-free medium for 24 h or in the serum isolated from either mice or human subjects. Mouse PCSK9 was measured using the Quantikinine® ELISA kit (#MCP900, R&D Systems) and human PCSK9 using the PCSK9 Quantikinine® ELISA kit (#DCP900, R&D Systems). Serum ApoB levels were also quantified using ELISAs (#DAPB00, R&D Systems). Serum samples were diluted as per manufacturer's instructions.
Healthy human subjects between the ages of 22 and 45 underwent fasting for 12 h prior to oral administration of 400 mg CF (˜5 mg/kg). Blood was collected prior to administration and at h 2 and 4 following administration.
Given that CF is among the most commonly consumed pharmacologically active compounds in the world (8), its ability to affect PCSK9 levels in fasted healthy volunteers was assessed. Serum was collected prior to, as well as 2- and 4-h post CF treatment (400 mg orally; ˜5 mg/kg). Consistent with the observations in cultured hepatocytes and in mice, CF reduced plasma PCSK9 levels in healthy subjects by 25% (n=12) and 21% (n=8) at the 2- and 4-h time points, respectively (FIG. 11 A and B).

Data set [4] relates to PCSK9. As to the kind of experiment: Secreted PCSK9 levels in HepG2 cells (ELISA). The data set is classed as cell-based, human. The protocol: HuH7 and HepG2 cells were routinely grown in complete Dulbecco's Modified Eagle's Medium (Gibco, Thermofisher Scientific) supplemented with 10% fetal bovine serum (Sigma-Aldrich) and 100 U/ml of penicillin and streptomycin (Sigma-Aldrich). […] All cell treatments were carried out for 24 h unless otherwise stated. Cells were transfected with a cocktail consisting of plasmid DNA (1 μg), X-tremeGENE HP (3 μl; Thermofisher Scientific) and opti-MEM (100 μl; Thermofischer Scientific) per 1 ml complete medium containing plated cells. Human PCSK9 was overexpressed using the bicistronic pIRES-EGFP plasmid; calnexin using the mPA-GFP-N1 plasmid. To block the expression of GRP78 and CD36, siGENOME smartpool siRNA was purchased from GE Dharmacon (M-008198-02 and L-010206-00-0005 respectively) and transfected using lipofectamine RNAiMAX as per manufacturer's protocol.
as §1
CF, however, is a well-characterized compound having several health benefits with few known adverse effects. Achieving an optimal level of PCSK9 inhibition absent of the neuro-excitatory effect of CF, however, may be a challenge for the long-term clinical application of these findings. […] See Table 6 for the structure activity relationships of several other known xanthine-based compounds explored at varying doses in HepG2 cells for 24 h.
In general terms: An ELISA detects its analyte on a solid surface through an enzyme-linked reagent.

Data set [5] relates to LDLR. As to the kind of experiment: LDLR / CD36 expression in cultured hepatocytes. Format: cell-based, human. From the text: Cells were washed in phosphate-buffered saline (PBS), lysed in 4× SDS-PAGE lysis buffer and separated on 7-10% polyacrylamide gels in denaturing conditions. […] Membranes were then exposed to horse radish peroxidase conjugated secondary antibodies and visualized using EZ-ECL chemiluminescent reagent (Froggabio). Band intensities were quantified using ImageJ software ([…]) against membranes reprobed for housekeeping proteins.
Slides were then mounted with permafluor and visualized using the EVOS FL colour imaging system at either 20 or 40× magnification.
RNA purification/isolation was performed using RNeasy mini kits (Qiagen) and normalized to 2 μg RNA using a NanoDrop® spectrophotometer. Samples were then reverse transcribed into cDNA using Superscript Vilo cDNA Synthesis kit (Thermofisher Scientific). Real-time PCR was executed with Fast SYBR Green (Thermo Fisher Scientific) using the ΔΔct method on the ViiA7 real-time PCR platform (Thermofisher Scientific).
The uptake and accumulation of DiI-LDL was then quantified using a fluorescent spectrophotometer (Molecular Devices). […] Live-cell staining of the LDLR was also performed in HepG2 cells exposed to DiI-LDL (FIG. 11 D).

The subject of data set [6] is HepG2 hepatocytes. Nature of the data set: LDH cytotoxicity assay in HepG2 hepatocytes. As to conditions: cultured HepG2 hepatocytes. The data set is classed as cell-based, human. The protocol:
Secreted PCSK9 levels were assessed using ELISAs and mRNA transcript via real-time PCR. […] Secreted PCSK9, as well as PCSK9 mRNA and SREBP2 mRNA were assessed in these cells. (E) The cytotoxicity of these agents was examined using an LDH assay. […] (G) The uptake of DiI-LDL was also quantified in these cells using a spectrophotometer. Values are presented as the mean and error bars as SD. *, p<0.05 vs. vehicle; NS, non-significant.

Entries after “also recorded” stand apart in the source; their conditions may differ.

As for `Cn1c(=O)c2c(ncn2C)n(C)c1=O` [caffeine, 1,3,7-Trimethylxanthine], the “phosphorylation of AMPK (pAMPK) and pACC in liver” value in data set [1] was “induced the phosphorylation and activation of AMPK”. Moreover, the global protein secretion entry in data set [2] is “not affecting global protein secretion”. For the same molecule, the “reduction of plasma PCSK9 levels at 2 h” value in data set [3] (2 h) stood at 25%. The “reduction of plasma PCSK9 levels at 4 h” value in data set [3] (4 h) is reported as 21%. Also, the “PCSK9 secretion from cells transfected with CMV-driven PCSK9 vector” value in data set [4] (HepG2, CF 1 mM, listed as CF) is recorded as “failed to block the secretion of PCSK9; also recorded: does not affect CMV-driven PCSK9 expression”. The “PCSK9 secretion in Ca^2+-deficient medium” value in data set [4] (HepG2, Ca^2+-deficient medium 48 h) is listed as “failed to antagonize PCSK9 secretion”. The “LDLR mRNA transcript levels” value in data set [5] (HuH7 and HepG2) is recorded as “reduced mRNA transcript levels of the LDLR”. In data set [5] (cultured hepatocytes, CF 200 μM, immunoblots), the “expression of PCSK9-regulated receptors (LDLR, CD36)” value is recorded as “increased the expression of PCSK9-regulated receptors”. In addition, the “cytotoxicity (LDH assay)” value in data set [6] was “did not exhibit cytotoxic properties”.
